According to PMC11714206, “Massively Parallel Screening of Toll/Interleukin‐1 Receptor (TIR)‐Derived Peptides Reveals Multiple Toll‐Like Receptors (TLRs)‐Targeting Immunomodulatory Peptides” (Advanced Science, 2024):
Several values for one entry are separate records, joined by “and”; a condition that tells them apart may be missing. Equal values may be shown once.

Target: T1, MAL^TIR (Homo sapiens, UniProt P58753)
T1 construct: MAL (residues 79–221); 6xHis; made in house; host or cells: E. coli BL21 (DE3)
Assay: T‐Surf phage library (P8 and P3) selection against MAL^TIR, four rounds, NGS read counts
Type: binding
Details: for P8_MAL Rank (after) / P8_MAL Rank (before): P8 library; for P3_MAL Rank (after) / P3_MAL Rank (before): P3 library; for Population: 4th round of selection against MAL TIR, share of NGS reads
Outline: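 Read counts come from NGS of phage pools enriched over four selection rounds on the plate‐coated TIR domain (5 µg mL^−1). Each round: 1 h phage binding at room temperature after 0.2% BSA blocking, Tween washes, acid elution, amplification in E. coli TG1 with M13KO7 helper.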

[1] = selection against MAL, rank after grouping
[2] = selection against MAL, rank before grouping
[3] = 4R selection against MAL, rank after grouping
[4] = 4R selection against MAL, rank before grouping
[5] = P3_MAL: rank by count after grouping
[6] = P3_MAL: rank by count before grouping
[7] = P8_MAL: rank by count after grouping
[8] = P8_MAL: rank by count before grouping
[9] = selection against MAL TIR, rank by count after grouping
[10] = selection against MAL TIR, rank by count before grouping
[11] = P3_MAL pool: P3 T-Surf phage library
[12] = selection against MAL, rank by count after grouping
[13] = selection against MAL, rank by count before grouping
[14] = P8_MAL pool: P8 T-Surf phage library

T1 sequence (P58753 79-221): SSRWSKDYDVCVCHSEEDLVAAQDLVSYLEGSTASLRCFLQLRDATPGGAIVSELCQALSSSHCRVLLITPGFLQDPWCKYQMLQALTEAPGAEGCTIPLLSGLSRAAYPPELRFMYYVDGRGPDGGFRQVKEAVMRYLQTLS

PFFWAQLKSLLRNPTS
P8_MAL Rank (after) [1]: 574 | P8_MAL Rank (before) [2]: 2320

WRCLNFVPRCIMCCR
P3_MAL Rank (after) [1]: 482 | P3_MAL Rank (before) [2]: 1287

TFLGNLYNPLVQAGLH
P8_MAL Rank (after) [1]: 521 | P8_MAL Rank (before) [2]: 2615

LFFWECLKKLLRRDGR
P8_MAL Rank (after) [3]: 601 | P8_MAL Rank (before) [4]: 2071

SSFREGRWRLPEVSKT
Rank (after) [5]: 448 | Rank (before) [6]: 3119

WFYERLVSMVLRDTKV
Rank (after) [7]: 406 | Rank (before) [8]: 1287

AFFWAHLKSVLGKPTM
P8_MAL Rank (after) [9]: 233 | P8_MAL Rank (before) [10]: 1601

NLLYDLLRWLGIRAFL
Rank (after) [7]: 403 | Rank (before) [8]: 2677

AFFWEKLRTVLGRPTM
Rank (after) [7]: 477 | Rank (before) [8]: 1713

RGYLRHVRHHLQAKDH
P3_MAL Rank (after) [3]: 657 | P3_MAL Rank (before) [4]: 2426

PNLRTKVLAYLNRTKT
P3_MAL Rank (after) [9]: 240 | P3_MAL Rank (before) [10]: 2701

TFLGHLYIALVQTGIH
P8_MAL Rank (after) [9]: 261 | P8_MAL Rank (before) [10]: 2558

LGFFCNQAKALSDRGI
Rank (after) [5]: 435 | Rank (before) [6]: 2116

TFLGHLYNALLRSDGR
P8_MAL Rank (after) [3]: 654 | P8_MAL Rank (before) [4]: 2590

DQWRNALTAAANLSGW
Population [11]: 0.00526%

RHNFIGYLYQALYRIG
P8_MAL Rank (after) [12]: 723 | P8_MAL Rank (before) [13]: 2174

WLYERLVSLILRDTQV
Rank (after) [7]: 108 | Rank (before) [8]: 1426

SKDYAQSAWALAEHEKR
P3_MAL Rank (after) [3]: 603 | P3_MAL Rank (before) [4]: 3225

NGYGSELIKEIVDTGV
P3_MAL Rank (after) [12]: 702 | P3_MAL Rank (before) [13]: 3249

WFYERLVSLIRRDTQV
Rank (after) [7]: 106 | Rank (before) [8]: 1220

RLLKWKEALHQFHSSL
Rank (after) [5]: 172 | Rank (before) [6]: 2515

AFFWPQLKSVLGNPTK
Rank (after) [7]: 146 | Rank (before) [8]: 1715

PEKDHGGENAIIKNIE
P3_MAL Rank (after) [1]: 556 | P3_MAL Rank (before) [2]: 2639

AFFGAQLKSVLRNPTM
P8_MAL Rank (after) [9]: 191 | P8_MAL Rank (before) [10]: 1739

TSHLHHAMRLNKIDTF
P3_MAL Rank (after) [3]: 633 | P3_MAL Rank (before) [4]: 3244

EYRNESKFIWDIINAI
Rank (after) [7]: 386 | Rank (before) [8]: 2047

RLLKWIETLHQFHSWV
P3_MAL Rank (after) [3]: 653 | P3_MAL Rank (before) [4]: 2489

SEFIQKISLWMNAKIV
Rank (after) [7]: 171 | Rank (before) [8]: 2486

AFFLGAAEKRAGQSDDX
Population [14]: 0.00371%

HQASWNRLWEQLKPRT
P3_MAL Rank (after) [1]: 505 | P3_MAL Rank (before) [2]: 2891

WHLHLRLRMHDLLQQM
P3_MAL Rank (after) [1]: 537 | P3_MAL Rank (before) [2]: 1311

AFLYTFLNTLTHPTNF
P8_MAL Rank (after) [9]: 209 | P8_MAL Rank (before) [10]: 1867

PSEIRKQTGSLPKAFA
P3_MAL Rank (after) [3]: 579 | P3_MAL Rank (before) [4]: 2665

DDAVWVYEHLVKFLEG
P8_MAL Rank (after) [3]: 617 | P8_MAL Rank (before) [4]: 1988

LFFWASLKNLLRSAGS
Rank (after) [7]: 389 | Rank (before) [8]: 2066

YFLHFLLFSLPENECI
P8_MAL Rank (after) [1]: 544 | P8_MAL Rank (before) [2]: 1474

YAFTGHLHRYLVRRSA
P3_MAL Rank (after) [1]: 561 | P3_MAL Rank (before) [2]: 1392

PKLRTKVMNYLMRTKT
Rank (after) [5]: 155 | Rank (before) [6]: 2759

NLIQGWLLYRLLKIEK
P8_MAL Rank (after) [9]: 286 | P8_MAL Rank (before) [10]: 2678

DFSHFWLFEAGGDAAI
P8_MAL Rank (after) [1]: 532 | P8_MAL Rank (before) [2]: 1981

SFLHFLLFSRPETASI
P8_MAL Rank (after) [3]: 642 | P8_MAL Rank (before) [4]: 1437

RGCLSHLRHHLHAKEH
P3_MAL Rank (after) [3]: 590 | P3_MAL Rank (before) [4]: 2423

PEKDNGGANAFSNNIV
P3_MAL Rank (after) [9]: 200 | P3_MAL Rank (before) [10]: 2645

TFLGHLYNALVQAGIRAFL
P8_MAL Rank (after) [3]: 588 | P8_MAL Rank (before) [4]: 2579

AFFWAQQKSVLGDPTM
P8_MAL Rank (after) [12]: 722 | P8_MAL Rank (before) [13]: 1646

AFFWPKLKSGLGNPTM
P8_MAL Rank (after) [3]: 635 | P8_MAL Rank (before) [4]: 1717

DWIREQLRPALKKRLP
P3_MAL Rank (after) [1]: 520 | P3_MAL Rank (before) [2]: 1989

*FYERLVSLILRDTKV
Population [14]: 0.00402% and 0.00278%

WFYDRLVSLFLRDPKV
Rank (after) [7]: 476 | Rank (before) [8]: 1140

WFYERMVSMILRDTKV
P8_MAL Rank (after) [9]: 280 | P8_MAL Rank (before) [10]: 1261

LKAESWRQAPEKAGKL
P3_MAL Rank (after) [9]: 259 | P3_MAL Rank (before) [10]: 2306

WFYERLVRLILSDTKV
P8_MAL Rank (after) [1]: 549 | P8_MAL Rank (before) [2]: 1175

SKDYAQSAWALEELTK
Population [11]: 0.0436% | Rank (after) [5]: 99 | Rank (before) [6]: 99

LFLWESLKHLLRSDGR
P8_MAL Rank (after) [9]: 232 | P8_MAL Rank (before) [10]: 2146

LKVESWRRAPEKAGKL
Rank (after) [5]: 457 | Rank (before) [6]: 2263

HQAFWKRPWAKLKPPT
Rank (after) [5]: 472 | Rank (before) [6]: 2884

RGFLSHLRHLLQAKDP
P3_MAL Rank (after) [9]: 193 | P3_MAL Rank (before) [10]: 2405

RWFWDKLIYALSRNTH
Rank (after) [5]: 471 | Rank (before) [6]: 3228

YAFPFHLFSCPELRGV
P3_MAL Rank (after) [12]: 742 | P3_MAL Rank (before) [13]: 1345

KLQECRDTLRKIADFF
P3_MAL Rank (after) [1]: 494 | P3_MAL Rank (before) [2]: 3627

VLQNFISHPYDFLARK
P3_MAL Rank (after) [1]: 570 | P3_MAL Rank (before) [2]: 1688

FLNFRGLYVRNYFLGP
Rank (after) [5]: 462 | Rank (before) [6]: 1145

RSLRERLWRLLALSKK
P3_MAL Rank (after) [1]: 577 | P3_MAL Rank (before) [2]: 2628

MRLPAICNVIWCSVA
Rank (after) [5]: 388 | Rank (before) [6]: 2938

KMQKWKEALHQFHSWV
Rank (after) [5]: 108 | Rank (before) [6]: 233

LFFWESLKQLLGNPTM
Rank (after) [7]: 177 | Rank (before) [8]: 909

YTALTNSGFHAFSDKD
Rank (after) [7]: 456 | Rank (before) [8]: 1556

YAFTGHLTGYLVQRGV
P3_MAL Rank (after) [9]: 220 | P3_MAL Rank (before) [10]: 1438

AFTGHLHRYLVQRGV
Rank (after) [5]: 121 | Rank (before) [6]: 408

SLRKNLLSNLIEECKR
P3_MAL Rank (after) [1]: 495 | P3_MAL Rank (before) [2]: 3097

TSFREGLLRLLELSKK
P3_MAL Rank (after) [12]: 754 | P3_MAL Rank (before) [13]: 3239

YAFTGHLHRYLMRTKT
Population [11]: 0.00338% | Rank (after) [5]: 114 | Rank (before) [6]: 186

LFFWESLKQLLRRWP
P8_MAL Rank (after) [1]: 563 | P8_MAL Rank (before) [2]: 2097

YAASPWWFDELVKIVG
Rank (after) [7]: 390 | Rank (before) [8]: 1526

QLIQQWSELHLLQLHL
P8_MAL Rank (after) [3]: 621 | P8_MAL Rank (before) [4]: 2387

DLLNGFIALKSTVIEN
P8_MAL Rank (after) [12]: 717 | P8_MAL Rank (before) [13]: 1982

AFFWEQLRTVLGKPR
Rank (after) [7]: 130 | Rank (before) [8]: 835

YFLHFRLLSRPETEYI
P8_MAL Rank (after) [3]: 643 | P8_MAL Rank (before) [4]: 1505

AFFWEQLRTVLRTPTL
P8_MAL Rank (after) [3]: 613 | P8_MAL Rank (before) [4]: 1676

RNNFICHLYQELYRIG
Rank (after) [7]: 428 | Rank (before) [8]: 2264

AFLYAFLISLTHTTTF
P8_MAL Rank (after) [1]: 571 | P8_MAL Rank (before) [2]: 1798

FLNWPRNPKEHRHFWH
P3_MAL Rank (after) [9]: 241 | P3_MAL Rank (before) [10]: 1181

AFFWAQLKSVLQSDD
P8_MAL Rank (after) [12]: 679 | P8_MAL Rank (before) [13]: 1635

AFLYTFLINLAHPTNF
Population [14]: 0.00278%

PNLRTKLLNSLMRTKT
P3_MAL Rank (after) [9]: 273 | P3_MAL Rank (before) [10]: 2682

LNLRTKVLNYLMRTKT
Population [11]: 0.00488%

AFLYTFPINLTHPTNF
Population [14]: 0.0034%

LFYERLVSLILRDTRG
P8_MAL Rank (after) [1]: 496 | P8_MAL Rank (before) [2]: 1104

RGFLSNLGHHLQAKDH
Rank (after) [5]: 440 | Rank (before) [6]: 2401

AFYWAQLNSVLRDTTM
P8_MAL Rank (after) [1]: 492 | P8_MAL Rank (before) [2]: 1785

LFFWDSLKHLLRCDGC
P8_MAL Rank (after) [3]: 593 | P8_MAL Rank (before) [4]: 2068

AFFWAQPKSVLGNPTV
Rank (after) [7]: 103 | Rank (before) [8]: 1645

LFFWERLKQLLRSDCR
Rank (after) [7]: 100 | Rank (before) [8]: 2072

LLIYRFVKKRNYLLGH
Rank (after) [5]: 416 | Rank (before) [6]: 2085

AFLYTFLKNLTHPTTF
Rank (after) [7]: 97 | Rank (before) [8]: 1875

AILYTFLINLTLPANF
P8_MAL Rank (after) [12]: 682 | P8_MAL Rank (before) [13]: 1576

NQWRNALTAEAKLSGW
P3_MAL Rank (after) [9]: 268 | P3_MAL Rank (before) [10]: 3414

WFYERLVNLNLRDTKV
Rank (after) [7]: 140 | Rank (before) [8]: 1242

YAFTGHLHRFWCSVA
Rank (after) [5]: 158 | Rank (before) [6]: 727

SSFSEGLWRRLELSKK
P3_MAL Rank (after) [3]: 594 | P3_MAL Rank (before) [4]: 3202

WFYERLVSHMLRDTKV
Rank (after) [7]: 179 | Rank (before) [8]: 1232

AFLGHLYNALVQAGIH
Population [14]: 0.00371%

YAFTRHLHRYLVHRGV
P3_MAL Rank (after) [12]: 714 | P3_MAL Rank (before) [13]: 1466
